The text below walks through data of patent publication US20120010178A1, “METHODS AND COMPOUNDS FOR TREATMENT OF NEURODEGENERATIVE DISORDERS” (PRESIDENT AND FELLOWS OF HARVARD COLLEGE, priority 2008, published 2012).

Assay [1] deals with kinase phosphorylation sites (Akt, RSK1, p38, GSKa/b, Erk1/2). In words: Phospho-kinase antibody array of PDGF treated fibroblasts. Type of assay: cell-based, human. Conditions: 50 ng/ml, 30 min. As for the experimental part:
Although there is much more known about growth factor specificity and downstream pathways that they activate, whether PDGF effect on SMN was mediated through the binding to the PDGFR was tested next. The SMN-increasing effects of PDGF were blocked by DMPQ and […], two small molecules inhibitors of the PDGF receptor (FIG. 21a). In addition PDGF neutralizing antibody titration were performed in the cells incubated with 20 ng/ml platelet-derived PDGF. Depending on the antibody concentration, gradient of SMN level decrease reaching 40% was observed (FIG. 21b). Moreover, as might be predicted, since there are appreciable levels of PDGF in the media serum in which the fibroblasts are normally maintained, simply adding PDGFR inhibitors DMPQ and AG-1296 to the media decreases the “basal” level of SMN in these cells down to 15-20%, (FIG. 22). Same effect was reproduced by adding PDGF neutralizing antibody to the media, confirming that PDGF can be a physiologically relevant regulator of SMN levels (FIG. 21c). […]
Cellular lysates from fibroblasts GM09677 treated with 50 ng/ml of PDGF-BB for 30 minutes and untreated control fibroblasts were collected and hybridized with the phosphor-kinase array membranes accordingly to the manufacture protocol (R&D Systems). […] Levels of phosphorylated protein were detected by measurement on the X-ray film (Kodak).

For another assay, the system named is motor neurons. In words: Motor neuron survival (mouse motor neurons, compound treatment). The class given is cell-based. As for the experimental part:
Mouse motor neurons were treated with […] inhibitors. The levels of both cytoplasmic and nuclear SMN were detected and quantified using the method described in Example 2. The results shown in FIG. 14b indicate that […] inhibitors increase motor neuron survival.
Another way of assessing motor neuron survival is by withdrawing the neurotrophic factors from the media. Briefly, motor neurons are grown in media containing neurotrophic factors. The neurotrophic factors are then withdrawn from the growth media, e.g., cells transferred to media having no neurotrophic factors or neurotrophic factor containing media exchanged with neurotrophic factors lacking media. The compound of interest is added and motor neurons are counted on a daily basis.

Assay [2] concerns SMN. In words: High-content fibroblast screen for compounds that modulate SMN level.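 Also: Anti-SMN immunostaining with confocal imaging of nuclear and cytoplasmic SMN and gem counts, tested at 0.1, 1 and 10 uM, fold change relative to negative control wells on each plate.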 The following applies: human fibroblasts, 2-3 days with compound.
Assay [3] concerns SMN. In words: SMN levels in human motor neurons derived from patient iPS cells. Type of assay: cell-based. Conditions: two days after treatment. As for the experimental part: GFP expressing motor neurons were derived from an […] patient iPS cells as described below. After growing for approximately 1 week, motor neurons were treated with allsterpaullone. Two days after treatment with allsterpaullone, cells were fixed and stained with SMN antibody or GFP antibody. […] Induced pluripotent stem cells were generated from an SMA patient fibroblast line from Coriell (GM09677) and differentiated into motor neurons according to methods adapted from Dimos, J. T., et. al. Science (2008) 321, 1218-122, Epub Jul. 31, 2008).

Assay [4] deals with ES-cell derived Motor Neurons with SMN knockdown. In words: Motor neuron survival assay after SMN knockdown (shRNA lentivirus). Conditions: for surviving motor neurons compared to DMSO: 1.25 and 2.5 uM. Type of assay: cell-based, mouse. The source says: To test for survival, motor neurons were infected with three lentiviral constructs acquired from Open Biosystems (pGIPZ): a non-silencing (NS) shRNA and two with unique shRNA sequences directed against the Smn transcript. […] Quantification of SMN knockdown were made in 3T3 cells (FIGS. 39a-39b) and in motor neurons by sorting ES cell derived motor neurons (cherry positive) infected with the pGIPZ lentiviruses (GFP positive cells) by FACS and quantifying the amount of SMN by Western blot.
Effect of reduced SMN levels on motor neuron survival was investigated next. Motor neurons were plated and infected with the various lentiviral constructs. […] To test the effects of SMN increasing compounds, we added them to motor neurons two days after lentiviral infection. Over the course of the subsequent three days, we counted live cherry expressing motor neurons on a daily basis.
Mouse ES-cells expressing cherry fluorescent protein (CFP) under control of a Hb9 promoter, a motor neuron specific transcription factor, were used to differentiate motor neurons as described in Example 31. Motor neurons were infected with the three constructs that were acquired from Open Biosystems (pGIPZ): a non-silencing (NS) shRNA and two constructs with unique shRNA sequences directed against the Smn transcript. […] First we performed motor neuron survival assays to test whether reduced levels of SMN will affect viability of these motor neurons. We differentiated mES cells with Hb9-Chemy Fluorescent Protein (Hb9-CFP) in to motor neurons expressing CFP, that later we dissociated and plated on DIV0. Cells were infected with the NS pGIPZ virus, SMN#1 pGIPZ virus, SMN#2 pGIPZ virus or no virus on DIV 1. The percentage of surviving motor neuron was normalized to the uninfected control culture. […] The percentage of surviving motor neuron was normalized to the culture infected with control non-targeting shRNA.

A further assay relates to PC12 cells. The following applies: cited from earlier work.

“Also recorded” adds a separate entry of the source.

Regarding PDGF, in assay [1], the “effect on Erk1 and 2 kinase phosphorylation” value is listed as “little effect”; the “kinases phosphorylated upon stimulation” value is “phosphorylation of Akt, RSK1, p38 and GSKa/b”. In addition, in the assay with motor neurons, the “motor neuron survival (in words)” value is given as “no effect”.

With `O=C1Cc2c([nH]c3ccc([N+](=O)[O-])cc23)-c2ccccc2N1` [Alsterpaullone], the “SMN level in fibroblast screen (increase or decrease)” value in the assay on SMN [2] was “SMN is increase”. In addition, in the assay on SMN [3], the “SMN levels in human iPS derived motor neurons (in words)” value is “Increased SMN levels”. Further, the “survival of motor neurons after SMN knockdown (in words)” value in assay [4] (1.25, 2.5 or 5 uM) is listed as “able to rescue the survival; also recorded: rescues the survival of SMN-KD Motor Neurons up to control level”. For the same molecule, the figures for the “surviving motor neurons compared to DMSO” value in assay [4] (by the second day) and in assay [4] (by the third day) were “twice the amount of surviving cells” and “three fold difference”, respectively. In the assay with PC12 cells, the “protection from EGTA induced death” value is “able to protect PC12 cells from EGTA induced death”.
